Source: patent publication US11491139B2, “Inhibition of YAP for breaking tumor immune tolerance” (The Johns Hopkins University, priority 2015, dated 2022)

Key:
B16-melanoma cells = test: B16-melanoma growth experiments in mice (tumor volume); assay type: in vivo; conditions: C57BL/6 mice challenged with B16-melanoma, Verteporfin 2 mg/mouse i.p. every two days, anti-PD-1 (G4) 100 μg/mouse i.p. twice a week, GVAX 1×10^6 irradiated cells s.c., FIG. 4
Method: C57BL/6 mice were challenged with B16-melanoma cells and tumor progression was monitored as in FIG. 3. Cohorts of mice were injected treated with either VP, GVAX, anti-PD1 antibody, VP and anti-PD-1, or VP and GVAX beginning one day post-tumor injection. Control mice were left untreated (n=5/group). Shown are the mean tumor volumes for the groups +/−SD.
B16-melanoma cells were cultured in vitro in DMEM plus 10% heat inactivated Fetal Bovine Serum and were detached by trypsinization and washed prior to s.c. injection into the footpads of C57BL/6 mice (NCI). 1-5×10^4 B16 melanoma cells were injected each mouse in the footpad. In some cases, 10^5 B16 cells were injected. Once tumors were palpable (7-10 days), […] of 1×10^6 lethally irradiated (150Gy) B16 GM-vaccine cells were injected subcutaneously into the contralateral limb. For all these experiments, 5-10 mice were used per group. A hybridoma cell line expressing a blocking anti-PD-1 antibody (clone G4) was obtained from Dr. Charles Drake (JHH). […] Tumor volume was determined by digital caliper measurements throughout the experiment. The relative tumor volume was calculated by the formula: Length (mm)×Width (mm)×Height (mm)×0.5326×0.01. […] Cytokines and Foxp3 were measured by intracellular flow cytometry.

[1] = statement with reference [17]; may limit bioavailability; cited from earlier work

## Verteporfin
B16-melanoma cells
  tumor growth / tumor size (tumor volume): modest reduction in tumor size
B16-melanoma cells; listed as VP
  tumor growth / tumor size (tumor volume): did not alter the course of tumor growth
[1]
  solubility: prone to solubility issues
